These results are taken from patent EP0983275B1, “NOVEL TRIPTOLIDE DERIVATIVES USEFUL IN THE TREATMENT OF AUTOIMMUNE DISEASES” (priority 1997, dated 1998).

One series relates to IL-2 production. As to the kind of experiment: Interleukin-2 assay (IL-2 production by ELISA after PHA/TPA stimulation). The format is cell-based. Particulars: Jurkat E6-1 cells or human lymphocytes stimulated with PHA 10 µg/mL and 10^-8 M TPA; 16-24 hours. As to the method:
(§1) Jurkat E6-1 cell line (ATCC), a human leukemic T cell line or lymphocytes prepared from fresh human blood, are grown in complete culture medium consisting of RPMI-1640 (Mediatech) supplemented with 10% v/v fetal bovine serum (HyClone, Logen, Vermont), penicillin (100 units/mL), streptomycin ([…]), and 2mM L-glutamine (GIBCO, Grand Island, New York). The cells are grown to a concentration of between 1.2 to 1.8 X 10^6 cells/mL before use. The cells are then centrifuged at low speed and resuspended to a concentration of 1.25 X 10^6 cells/mL in fresh medium.
(§2) The compounds to be tested are dissolved in DMSO, and water is added to make a 50% DMSO/water solution. The compounds are then diluted in sterile water such that the DMSO concentrations are less then 0.05%. The cells at a concentration of 1.25 X 10^6 cells/mL are stimulated with phytohemagglutinin 10 µg/mL (PHA) and 10^-8 M phorbol ester (12-O-tetradecanoylphorbol 13-acetate: TPA), (Sigma, St. Louis, Missouri). The compounds are then added and the cells are plated in flat-bottom tissue culture plates (Falcon, Lincoln Park, New Jersey), with 250,000 cells/well. Plates are then incubated at 37°C in a 5% CO2 atmosphere.
(§3) After incubation (16-24 hours), the cells are assayed for IL-2 production and cell viability (MTT). IL-2 production is assayed utilizing a solid phase ELISA immunoassay, sold in kit form by R&D Systems, Inc., Minneapolis, Minnesota.

The subject of the next series is Jurkat E6-1 cell line. Put plainly: Cell viability (MTT mitochondrial enzyme assay). The format is cell-based, human. Particulars: cells of the IL-2 assay after removal of supernatant, MTT 4 hours at 37°C. As to the method: as §1, §2, §3
Cell viability is measured by the use of a mitochondrial enzyme assay. After removal of the supernatant for the IL-2 assay, Cell Titer 96 (a commercial solution of MTT obtained from Promega, Madison, Wisconsin), is added to the plates and incubated for 4 hours at 37°C. A solubilization solution is then added and incubated overnight. The plates are then read on an ELISA plate reader at a wavelength of 570 nm. Table II presents the results for the Interleukin-2 assay, the cell viability assay and the ratio of cell viability/IL-2 inhibition.
(Tetrazolium dyes change colour on reduction, which living cells bring about.)

Series [1] deals with adjuvant-induced arthritis. Put plainly: Anti-inflammatory activity in the rat model of adjuvant-induced arthritis. The format is in vivo, Male Wistar-Lewis rats. Particulars: 12 consecutive days. As to the method:
Following generally the procedure of Pearson and Wood, Arth. Rheum., 2, 44 (1959), the anti-inflammatory activity of the following compounds was determined in a rat model of adjuvant-induced arthritis. Male Wistar-Lewis rats (Mollegaard, Breeding Centre Ltd, BIBY, DK 4623 LI, SKENSVED, P.P. Box 28, DK) with a body weight between 160 g and 200 g are used. Freund's adjuvant (0.1 mL, 6 mg Mycobacterium smegmatis suspension per mL in heavy white paraffin oil, Merck/Darmstadt) was injected into the base of the tail. […] The animals received standardized food Altromin-R (Altrogge, Lage) and had free access to water. The compounds were administered i.p. (a suspension in carboxymethyl cellulose solution in an injection volume of 0.5 mL/100 g body weight) on 12 consecutive days, starting with the day of the adjuvant injection. On day 1 and day 18 of the study, the volume of both hind paws and the body weight were recorded, and in addition on day 18 the arthritis index.

Series [2] in a line: Body weight change (weight gain) in the rat model of adjuvant-induced arthritis. The format is in vivo, Male Wistar-Lewis rats. Particulars: 10 mg/kg/day i.p.; weight gain between day 1 and day 21. As to the method:
Following generally the procedure of Pearson and Wood, Arth. Rheum., 2, 44 (1959), the anti-inflammatory activity of the following compounds was determined in a rat model of adjuvant-induced arthritis. Male Wistar-Lewis rats (Mollegaard, Breeding Centre Ltd, BIBY, DK 4623 LI, SKENSVED, P.P. Box 28, DK) with a body weight between 160 g and 200 g are used. Freund's adjuvant (0.1 mL, 6 mg Mycobacterium smegmatis suspension per mL in heavy white paraffin oil, Merck/Darmstadt) was injected into the base of the tail. Between day 10 and day 14 of the test, immunopathological processes let to chronic inflammation, especially in the form of arthritic and periarthritic symptoms in all parts of the body. The animals received standardized food Altromin-R (Altrogge, Lage) and had free access to water. The compounds were administered i.p. (a suspension in carboxymethyl cellulose solution in an injection volume of 0.5 mL/100 g body weight) on 12 consecutive days, starting with the day of the adjuvant injection. On day 1 and day 18 of the study, the volume of both hind paws and the body weight were recorded, and in addition on day 18 the arthritis index. Cyclosporin A and Prednisolone were used as standard compounds. In addition, table IV presents the percent change in body weight (weight gain) between day 1 and day 21 of the above test.

In brackets after ≈: the same amount, converted by molar mass.

Broadly, the % Inhibition is how much of the control response was suppressed. `CC(C)C12OC1C1OC13C1(C)CCC4=C(COC4=O)C1CCC3(O)C2O` (stereo not drawn) [Example 1, [5aR-(5aα,6α,6aα,7aα,7bβ,8aS*,8bα)]-3,3b,4,5,5a,6,6a,7a,7b,8b,9,10-dodecahydro-5a,6-dihydroxy-8b-methyl-6a-(1-methylethyl)-1H-bisoxireno[4b,5:6,7]phenanthro[1,2-c]furan-1-one]: in the series with IL-2 production, the IC50/IL-2 was 36 ng/mL (≈ 0.0993 µM). Also, the IC50/MTT with Jurkat E6-1 cell line was 300 to 500 ng/mL. Also, the “% Inhibition” value in series [1] (10 mg/kg/day i.p.) is given as 90%. Also, the “% Change in Body Weight” value in series [2] is given as 29.9%.
Take `C[C@]12C=CC(=O)C=C1CC[C@@H]1[C@@H]2[C@@H](O)C[C@@]2(C)[C@H]1CC[C@]2(O)C(=O)CO` [Prednisolone]: the “% Inhibition” value in series [1] (15 mg/kg/day i.p.) was 100%.
As a reminder, the IC50 is the concentration that inhibits the measured activity by half. High values mean weaker potency, low ones greater potency. For `CC(C)[C@]12O[C@H]1[C@@H]1O[C@]13[C@]1(O[C@H]1C[C@H]1C4=C(CC[C@@]13C)C(=O)OC4)[C@@H]2O` [Triptolide], the IC50 in the series with IL-2 production is 1 to 3 ng/mL (≈ 0.00277 to 0.00832 µM); in the series on Jurkat E6-1 cell line (Homo sapiens, Jurkat E6.1), 5 ng/mL (≈ 0.0139 µM). The “% Inhibition” value in series [1] (0.2 mg/kg/day i.p.) turned out to be 70%; in series [1] (0.4 mg/kg/day i.p.) it was 85%; in series [1] (0.8 mg/kg/day i.p.) it was 76%.
In the series with IL-2 production, “[1S-(1α,2β,3α,3aβ,4aR*,4bα,11aα)]-3-chloro-1,2,3,3a,4b,5,6,9,9b,10,11,11a-dodecahydro-1,2,11a-trihydroxy-4b-methyl-2-(1-methylethyl)-7H-oxireno[4b,5]phenanthro[1,2-c]furan-7-one [Example 2]” gave an IC50/IL-2 of 60 ng/mL. The compound also yielded an IC50/MTT in the series with Jurkat E6-1 cell line of 550 ng/mL.
